Assay results from article PMC10819243 (Pharmaceutics, 2024).
Where two headings read alike, the source gives them in different places.

Columns and labels:
[1] = system: HDF (normal fibroblast cell line); test: MTT assay, HDF; format: cell-based, human; details: MTT assay, HDF normal fibroblast cell line, (±s) standard deviation
[2] = system: KB; test: MTT assay, KB; format: cell-based; details: for Selectivity Index KB: IC50 for normal cell line (HDF)/IC50 for KB; for IC50: Homo sapiens, MTT assay, KB nasopharynx carcinoma, (±s) standard deviation
[3] = system: MCF-7; test: MTT assay, MCF-7; format: cell-based; details: for Selectivity Index MCF-7: IC50 for normal cell line (HDF)/IC50 for MCF-7; for IC50: Homo sapiens, MCF7, MTT assay, MCF-7 breast carcinoma, (±s) standard deviation
[4] = system: HeLa; test: MTT assay, HeLa; format: cell-based; details: for Selectivity Index HeLa: IC50 for normal cell line (HDF)/IC50 for HeLa; for IC50: Homo sapiens, MTT assay, HeLa cervix carcinoma, (±s) standard deviation
[5] = system: A-549; test: MTT assay, A-549; format: cell-based; details: for IC50: Homo sapiens, A549, MTT assay, A-549 lung carcinoma, (±s) standard deviation; for Selectivity Index A-549: IC50 for normal cell line (HDF)/IC50 for A-549
[6] = system: HeLa, KB, MCF-7, A-549 and HDF cell lines; test: MTT assay, statements over several tested cell lines; format: cell-based; details: for times less active than mother OA (1): over the tested cell lines
[7] = ratio of IC50 values vs oleanolic acid (1)
[8] = summary over the tested cell lines, read-out: IC50 values for the tested cell lines (range or summary)
[9] = one approximate value or range for the four cancer cell lines, apart from HDF, read-out: IC50 for HeLa, KB, MCF-7, and A-549 cancer cell lines

Structure (SMILES)	IC50 ([1]; Homo sapiens, Fibroblast) [µM]	Selectivity Index KB [2]	Selectivity Index MCF-7 [3]	Selectivity Index HeLa [4]	IC50 [5] [µM]	Selectivity Index A-549 [5]	IC50 [2] [µM]	fold as active as OA (1), KB [2, 7]	IC50 [3] [µM]	fold as active as OA (1), MCF-7 [3, 7]	IC50 [4] [µM]	times less active than mother OA (1) [6]	IC50 [6, 8] [µM]	IC50 [6, 9] [µM]	IC50 [1] [µM]
CC1(C)CC[C@]2(C(=O)O)CC[C@]3(C)C(=CC[C@@H]4[C@@]5(C)CC[C@H](O)C(C)(C)[C@@H]5CC[C@]43C)[C@@H]2C1 [Compound 1, oleanolic acid, reference compound]	17.9	–	–	–	–	–	–	–	–	–	–	–	–	–	–
COC(=O)C12CCC(C)(C)CC1C1=CCC3C4(C)CCC(=NO)C(C)(C)C4CCC3(C)C1(C)CC2 (centres unmarked) [Compound 2, methyl oleanonate oxime]	21.1	1.70	1.38	1.60	13	1.62	–	–	–	–	–	–	–	–	–
COC(=O)[C@]12CCC(C)(C)CC1C1=CCC3[C@@]4(C)CC/C(=N\OC(C)=O)C(C)(C)C4CC[C@@]3(C)[C@]1(C)CC2 (some centres unmarked) [Compound 5a, 3-Acetoxyiminoolean-12-en-28-oic acid methyl ester]	29	2.55	2.76	2.62	10.6	2.74	11.4	about 1.3 fold	10.5	about 1.3 fold	11.1	–	–	–	–
COC(=O)[C@]12CCC(C)(C)CC1C1=CCC3[C@@]4(C)CC/C(=N\OC(=O)CCl)C(C)(C)C4CC[C@@]3(C)[C@]1(C)CC2 (some centres unmarked) [Compound 5b, 3-Chloroacetoxyiminoolean-12-en-28-oic acid methyl ester]	37	2.01	2.05	1.87	19.8	1.87	18.4	–	18	–	19.8	1.7–2.2 fold	–	–	–
CCC(=O)O/N=C1\CC[C@@]2(C)C(CC[C@]3(C)C2CC=C2C4CC(C)(C)CC[C@]4(C(=O)OC)CC[C@]23C)C1(C)C (some centres unmarked) [Compound 5c, 3-Propionoxyiminoolean-12-en-28-oic acid methyl ester]	39.9	1.03	1.05	1.05	36.2	1.10	38.8	–	38.1	–	38.1	2.2–4.1 fold	–	–	–
COC(=O)[C@]12CCC(C)(C)CC1C1=CCC3[C@@]4(C)CC/C(=N\OC(=O)c5ccccc5)C(C)(C)C4CC[C@@]3(C)[C@]1(C)CC2 (some centres unmarked) [Compound 5d, 3-Benzoxyiminoolean-12-en-28-oic acid methyl ester]	113	1.36	1.36	1.33	73.9	1.53	83.2	–	83.3	–	84.9	–	73.9 to 113	–	–
COC(=O)[C@]12CCC(C)(C)CC1C1=CCC3[C@@]4(C)CC/C(=N\OC(=O)c5cccc([N+](=O)[O-])c5)C(C)(C)C4CC[C@@]3(C)[C@]1(C)CC2 (some centres unmarked) [Compound 5e]	38	1.59	1.74	1.88	21.1	1.80	23.9	–	21.8	–	20.1	–	20.1 to 38	–	–
COC(=O)[C@]12CCC(C)(C)CC1C1=CCC3[C@@]4(C)CC/C(=N\OC(=O)c5ccc([N+](=O)[O-])cc5)C(C)(C)C4CC[C@@]3(C)[C@]1(C)CC2 (some centres unmarked) [Compound 5f, 3-(4′-Nitro)benzoxyiminoolean-12-en-28-oic acid methyl ester]	132	2.18	2.15	2.13	69.9	1.89	60.7	–	61.4	–	62	–	60.7 to 132	–	–
COC(=O)[C@]12CCC(C)(C)CC1C1=CC(=O)C3[C@@]4(C)CC/C(=N\OC(C)=O)C(C)(C)C4CC[C@@]3(C)[C@]1(C)CC2 (some centres unmarked) [Compound 6a, 3-Acetoxyimino-11-oxoolean-12-en-28-oic acid methyl ester]	~49	1.76	1.75	1.79	28.2	1.74	27.9	–	28	–	27.4	–	–	~28	49.1
COC(=O)[C@]12CCC(C)(C)CC1C1=CC(=O)C3[C@@]4(C)CC/C(=N\OC(=O)CCl)C(C)(C)C4CC[C@@]3(C)[C@]1(C)CC2 (some centres unmarked) [Compound 6b, 3-Chloroacetoxyimino-11-oxoolean12-en-28-oic acid methyl ester]	88	1.44	1.37	1.44	61.8	1.42	61	–	64.1	–	61	–	–	61 to 64	–
CCC(=O)O/N=C1\CC[C@@]2(C)C(CC[C@]3(C)C2C(=O)C=C2C4CC(C)(C)CC[C@]4(C(=O)OC)CC[C@]23C)C1(C)C (some centres unmarked) [Compound 6c, 3-Propionoxyimino-11-oxoolean-12-en-28-oic acid methyl ester]	~50	1.97	2.13	2.04	24.2	2.03	24.8	–	23	–	24	–	–	~24	49
COC(=O)[C@]12CCC(C)(C)CC1C1=CC(=O)C3[C@@]4(C)CC/C(=N\OC(=O)c5ccccc5)C(C)(C)C4CC[C@@]3(C)[C@]1(C)CC2 (some centres unmarked) [Compound 6d, 3-Benzoxyimino-11-oxoolean-12-en-28-oic acid methyl ester]	~42	1.54	1.53	1.48	27.8	1.51	27.2	–	27.5	–	28.4	–	–	~27	42
COC(=O)[C@]12CCC(C)(C)CC1C1=CC(=O)C3[C@@]4(C)CC/C(=N\OC(=O)c5cccc([N+](=O)[O-])c5)C(C)(C)C4CC[C@@]3(C)[C@]1(C)CC2 (some centres unmarked) [Compound 6e, 3-(3′-Nitro)benzoxyimino-11-oxoolean-12-en-28-oic acid methyl ester]	~97	1.39	1.29	1.36	74	1.31	70	–	75	–	71.2	–	–	70 to 74	97
COC(=O)[C@]12CCC(C)(C)CC1C1=CC(=O)C3[C@@]4(C)CC/C(=N\OC(=O)c5ccc([N+](=O)[O-])cc5)C(C)(C)C4CC[C@@]3(C)[C@]1(C)CC2 (some centres unmarked) [Compound 6f, 3-(4′-Nitro)benzoxyimino-11-oxoolean-12-en-28-oic acid methyl ester]	37.2	1.41	1.43	1.31	28.1	1.32	26.3	–	26	–	28.3	–	–	–	–
